Laboratory results reported in US20240158446A1, “CYCLIC COMPOUND HAVING SELECTIVE INHIBITORY ACTION ON KRAS OVER HRAS AND NRAS” (CHUGAI SEIYAKU KABUSHIKI KAISHA, priority 2021, published 2024).
*1 amine or outer side, *2 acyl side, *3 side chain or, on linkers, in order; H or OH if unused. Where a SMILES comes first, the peptide text is derived from it. Bridges are numbered along the chain shown (N, C = ends). [ ]: non-standard residue; d: D form. The star is where a group is joined. hPhe(3-Cl-4-CF3) = N[C@@H](CCc1ccc(C(F)(F)F)c(Cl)c1)C(=O)O; X52 = CCCN([C@@H](Cc1ccc(OC(F)(F)F)cc1)C(=O)[*:2])[*:1]; NPrPhe(4-CF3) = CCCN[C@@H](Cc1ccc(C(F)(F)F)cc1)C(=O)O; X15 = Cc1ccc(C[C@@H](C(=O)[*:2])N(CCC(C)C)[*:1])cc1; X42 = Cc1ccc(C[C@@H](C(=O)[*:2])N(CC2CCC2)[*:1])cc1; X10 = C=CCN([C@@H](Cc1ccc(C)cc1)C(=O)[*:2])[*:1]; X53 = C#CCN([C@@H](Cc1ccc(C)cc1)C(=O)[*:2])[*:1]; NMeGly(cPent) = CN[C@H](C(=O)O)C1CCCC1; Pro(4S-Me) = C[C@@H]1CN[C@H](C(=O)O)C1; Aze(3S-Me) = C[C@H]1CN[C@@H]1C(=O)O; Gly(cPent) = N[C@H](C(=O)O)C1CCCC1; cisHyp = O=C(O)[C@@H]1C[C@H](O)CN1; Hyp = O=C(O)[C@@H]1C[C@@H](O)CN1; NMeD = CN[C@@H](CC(=O)O)C(=O)O; NMeL = CN[C@@H](CC(C)C)C(=O)O; Morpholide = C1CN(*)CCO1; NMeA = CN[C@@H](C)C(=O)O; Ac5c = NC1(C(=O)O)CCCC1; Aze = O=C(O)[C@@H]1CCN1; Ethyl(2,2-F2) = FC(F)C*; Ac4c = NC1(C(=O)O)CCC1; NEtG = CCNCC(=O)O; Sar = CNCC(=O)O

Molecular target: GDP-bound KRAS wild-type protein (Homo sapiens, UniProt P01116)
Assay: Binding to KRAS by surface plasmon resonance (SPR), Single Cycle Kinetics
Details: SPR Single Cycle Kinetics, GDP-bound KRAS wild-type protein, 1:1 binding model; read-out: KRAS KD

Chain of GDP-bound KRAS wild-type protein (P01116 whole entry): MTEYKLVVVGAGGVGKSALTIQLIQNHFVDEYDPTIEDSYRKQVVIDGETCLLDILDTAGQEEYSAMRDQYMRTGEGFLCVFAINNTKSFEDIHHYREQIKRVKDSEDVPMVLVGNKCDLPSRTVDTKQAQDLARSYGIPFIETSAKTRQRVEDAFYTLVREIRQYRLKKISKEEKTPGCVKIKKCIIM

Kd | SMILES
400 nM | CC[C@H](C)[C@@H]1NC(=O)[C@H](CC(C)C)N(C)C(=O)C[C@@H](C(=O)N2CCOCC2)N(C)C(=O)[C@H](C2CCCC2)NC(=O)C2(CCCC2)NC(=O)[C@@H]2CCCN2C(=O)[C@H](CCc2cc(F)c(C(F)(F)F)c(F)c2)NC(=O)CN(C)C(=O)[C@H](Cc2ccc(C(F)(F)F)cc2)N2CCCCC[C@@H](C2=O)N(C)C(=O)CN(C)C1=O [PP0478]
0.37 nM | CCCN1C(=O)CN(C)C(=O)CN(C)C(=O)[C@H]([C@@H](C)CC)NC(=O)[C@H](CC(C)C)N(C)C(=O)C[C@@H](C(=O)N2CCOCC2)N(C)C(=O)[C@H](C2CCCC2)N(C)C(=O)C2(CCCC2)NC(=O)[C@@H]2C[C@H](OCC(F)F)CN2C(=O)[C@H](CCc2ccc(C(F)(F)F)c(Cl)c2)NC(=O)CN(C)C(=O)[C@@H]1Cc1ccc(C(F)(F)F)cc1 [PP0245] ([NMeL]I[Sar][Sar][NPrPhe(4-CF3)][Sar][hPhe(3-Cl-4-CF3)][cisHyp](Ethyl(2,2-F2))[Ac5c][NMeGly(cPent)][NMeD]-Morpholide; lactam N-11)
0.47 nM | CCCN1C(=O)CN(C)C(=O)CN(C)C(=O)[C@H]([C@@H](C)CC)NC(=O)[C@H](CC(C)C)N(C)C(=O)C[C@@H](C(=O)N2CCOCC2)N(C)C(=O)[C@H](C2CCCC2)N(C)C(=O)C2(CCCC2)NC(=O)[C@@H]2CCCN2C(=O)[C@H](CCc2ccc(C(F)(F)F)c(Cl)c2)NC(=O)CN(C)C(=O)[C@@H]1Cc1ccc(OC(F)(F)F)cc1 [PP0137] ([NMeL]I[Sar][Sar][X52][Sar][hPhe(3-Cl-4-CF3)]P[Ac5c][NMeGly(cPent)][NMeD]-Morpholide; lactam N-11)
0.25 nM | CCCN1C(=O)CN(C)C(=O)CN(C)C(=O)[C@H](C2CCCC2)NC(=O)[C@H](CC(C)C)N(C)C(=O)C[C@@H](C(=O)N2CCOCC2)N(C)C(=O)[C@H](C2CCCC2)N(C)C(=O)C2(CCCC2)NC(=O)[C@@H]2CCCN2C(=O)[C@H](CCc2ccc(C(F)(F)F)c(Cl)c2)NC(=O)CN(C)C(=O)[C@@H]1Cc1ccc(C(F)(F)F)cc1 [PP0251] ([NMeL][Gly(cPent)][Sar][Sar][NPrPhe(4-CF3)][Sar][hPhe(3-Cl-4-CF3)]P[Ac5c][NMeGly(cPent)][NMeD]-Morpholide; lactam N-11)
0.18 nM | CCCN1C(=O)[C@@H]2CCN2C(=O)[C@H](C)N(C)C(=O)[C@H]([C@@H](C)CC)NC(=O)[C@H](CC(C)C)N(C)C(=O)C[C@@H](C(=O)N2CCOCC2)N(C)C(=O)[C@H](C2CCCC2)N(C)C(=O)C2(CCCC2)NC(=O)[C@@H]2C[C@H](C)CN2C(=O)[C@H](CCc2ccc(C(F)(F)F)c(Cl)c2)NC(=O)CN(C)C(=O)[C@@H]1Cc1ccc(C(F)(F)F)cc1 [PP0455] ([NMeL]I[NMeA][Aze][NPrPhe(4-CF3)][Sar][hPhe(3-Cl-4-CF3)][Pro(4S-Me)][Ac5c][NMeGly(cPent)][NMeD]-Morpholide; lactam N-11)
0.37 nM | CCCN1C(=O)[C@@H]2CCN2C(=O)CN(C)C(=O)[C@H]([C@@H](C)CC)NC(=O)[C@H](CC(C)C)N(C)C(=O)C[C@@H](C(=O)N(C)C)NC(=O)[C@H](C2CCCC2)N(C)C(=O)C2(CCCC2)NC(=O)[C@@H]2CCCN2C(=O)[C@H](CCc2ccc(C(F)(F)F)c(Cl)c2)NC(=O)CN(C)C(=O)[C@@H]1Cc1ccc(C(F)(F)F)cc1 [PP0385] ([NMeL]I[Sar][Aze][NPrPhe(4-CF3)][Sar][hPhe(3-Cl-4-CF3)]P[Ac5c][NMeGly(cPent)]D-NMe2; lactam N-11)
0.75 nM | CCCN1C(=O)CN(C)C(=O)CN(CC)C(=O)[C@H]([C@@H](C)CC)NC(=O)[C@H](CC(C)C)N(C)C(=O)C[C@@H](C(=O)N2CCOCC2)N(C)C(=O)[C@H](C2CCCC2)N(C)C(=O)C2(CCCC2)NC(=O)[C@@H]2C[C@H](C)CN2C(=O)[C@H](CCc2ccc(C(F)(F)F)c(Cl)c2)NC(=O)CN(C)C(=O)[C@@H]1Cc1ccc(C(F)(F)F)cc1 [PP0451] ([NMeL]I[NEtG][Sar][NPrPhe(4-CF3)][Sar][hPhe(3-Cl-4-CF3)][Pro(4S-Me)][Ac5c][NMeGly(cPent)][NMeD]-Morpholide; lactam N-11)
0.12 nM | C=CCN1C(=O)[C@@H]2CCN2C(=O)[C@H](C)N(C)C(=O)[C@H]([C@@H](C)CC)NC(=O)[C@H](CC(C)C)N(C)C(=O)C[C@@H](C(=O)N2CCOCC2)N(C)C(=O)[C@H](C2CCCC2)N(C)C(=O)C2(CCCC2)NC(=O)[C@@H]2CCCN2C(=O)[C@H](CCc2ccc(C(F)(F)F)c(Cl)c2)NC(=O)CN(C)C(=O)[C@@H]1Cc1ccc(C)cc1 [PP0088] ([NMeL]I[NMeA][Aze][X10][Sar][hPhe(3-Cl-4-CF3)]P[Ac5c][NMeGly(cPent)][NMeD]-Morpholide; lactam N-11)
0.021 nM | CCCN1C(=O)[C@@H]2CCN2C(=O)[C@H](C)N(C)C(=O)[C@H]([C@@H](C)CC)NC(=O)[C@H](CC(C)C)N(C)C(=O)C[C@@H](C(=O)N(C)C)N(C)C(=O)[C@H](C2CCCC2)N(C)C(=O)C2(CCC2)NC(=O)[C@@H]2C[C@@H](OCC)CN2C(=O)[C@H](CCc2ccc(C(F)(F)F)c(Cl)c2)NC(=O)CN(C)C(=O)[C@@H]1Cc1ccc(C(F)(F)F)cc1 [PP0439] ([NMeL]I[NMeA][Aze][NPrPhe(4-CF3)][Sar][hPhe(3-Cl-4-CF3)][Hyp](Et)[Ac4c][NMeGly(cPent)][NMeD]-NMe2; lactam N-11)
1.3 nM | CCCN1C(=O)[C@@H]2CCN2C(=O)[C@H](C)N(C)C(=O)[C@H]([C@@H](C)CC)NC(=O)[C@H](CC(C)C)N(C)C(=O)C[C@@H](C(=O)N2CCOCC2)N(C)C(=O)[C@H](C2CCCC2)N(C)C(=O)C2(CCCC2)NC(=O)[C@@H]2CCCN2C(=O)[C@H](CCc2ccc(C(F)(F)F)c(Cl)c2)NC(=O)CN(C)C(=O)[C@@H]1Cc1ccc(OC(F)(F)F)cc1 [PP0136] ([NMeL]I[NMeA][Aze][X52][Sar][hPhe(3-Cl-4-CF3)]P[Ac5c][NMeGly(cPent)][NMeD]-Morpholide; lactam N-11)
0.083 nM | C#CCN1C(=O)[C@@H]2CCN2C(=O)[C@H](C)N(C)C(=O)[C@H]([C@@H](C)CC)NC(=O)[C@H](CC(C)C)N(C)C(=O)C[C@@H](C(=O)N2CCOCC2)N(C)C(=O)[C@H](C2CCCC2)N(C)C(=O)C2(CCCC2)NC(=O)[C@@H]2CCCN2C(=O)[C@H](CCc2ccc(C(F)(F)F)c(Cl)c2)NC(=O)CN(C)C(=O)[C@@H]1Cc1ccc(C)cc1 [PP0090] ([NMeL]I[NMeA][Aze][X53][Sar][hPhe(3-Cl-4-CF3)]P[Ac5c][NMeGly(cPent)][NMeD]-Morpholide; lactam N-11)
0.36 nM | CCCN1C(=O)[C@@H]2CCN2C(=O)[C@@H]2[C@@H](C)CN2C(=O)[C@H]([C@@H](C)CC)NC(=O)[C@H](CC(C)C)N(C)C(=O)C[C@@H](C(=O)N2CCOCC2)N(C)C(=O)[C@H](C2CCCC2)N(C)C(=O)C2(CCCC2)NC(=O)[C@@H]2CCCN2C(=O)[C@H](CCc2ccc(C(F)(F)F)c(Cl)c2)NC(=O)CN(C)C(=O)[C@@H]1Cc1ccc(C(F)(F)F)cc1 [PP0279] ([NMeL]I[Aze(3S-Me)][Aze][NPrPhe(4-CF3)][Sar][hPhe(3-Cl-4-CF3)]P[Ac5c][NMeGly(cPent)][NMeD]-Morpholide; lactam N-11)
1.1 nM | CC[C@H](C)[C@@H]1NC(=O)[C@H](CC(C)C)N(C)C(=O)C[C@@H](C(=O)N2CCOCC2)N(C)C(=O)[C@H](C2CCCC2)N(C)C(=O)C2(CCCC2)NC(=O)[C@@H]2CCCN2C(=O)[C@H](CCc2ccc(C(F)(F)F)c(Cl)c2)NC(=O)CN(C)C(=O)[C@H](Cc2ccc(C)cc2)N(CC2CCC2)C(=O)[C@@H]2CCN2C(=O)[C@H](C)N(C)C1=O [PP0083] ([NMeL]I[NMeA][Aze][X42][Sar][hPhe(3-Cl-4-CF3)]P[Ac5c][NMeGly(cPent)][NMeD]-Morpholide; lactam N-11)
0.23 nM | CC[C@H](C)[C@@H]1NC(=O)[C@H](CC(C)C)N(C)C(=O)C[C@@H](C(=O)N2CCOCC2)N(C)C(=O)[C@H](C2CCCC2)N(C)C(=O)C2(CCCC2)NC(=O)[C@@H]2CCCN2C(=O)[C@H](CCc2ccc(C(F)(F)F)c(Cl)c2)NC(=O)CN(C)C(=O)[C@H](Cc2ccc(C)cc2)N(CCC(C)C)C(=O)CN(C)C(=O)CN(C)C1=O [PP0098] ([NMeL]I[Sar][Sar][X15][Sar][hPhe(3-Cl-4-CF3)]P[Ac5c][NMeGly(cPent)][NMeD]-Morpholide; lactam N-11)

SMILES | Kd
CCO[C@@H]1C[C@H]2C(=O)NC3(CC(C)(C)C3)C(=O)N(C)[C@@H](C(CC)CC)C(=O)N(C)[C@H](C(=O)N3CCCCC3)CC(=O)N(C)[C@H]3CCC/C=C/c4ccc(cc4)C[C@@H](C(=O)N(C)CC(=O)N[C@@H](CCc4cc(F)c(C(F)(F)F)c(F)c4)C(=O)N2C1)N1CC/C=C\C[C@@H](C1=O)N(C)C(=O)CN(C)C(=O)[C@H]([C@@H](C)CC)NC3=O [PP2952] | 0.79 nM

Same assay, conditions: SPR, Single Cycle Kinetics, 1:1 binding model; GDP-bound KRAS wild-type protein; read-out: KRAS KD

Kd | SMILES
4.1 nM | CCO[C@@H]1C[C@H]2C(=O)NC3(CCC3)C(=O)N(C)[C@@H](C(CC)CC)C(=O)N(C)[C@H](C)CC(=O)N(C)[C@@H](CC3CCCC3)C(=O)N[C@@H]([C@@H](C)CC)C(=O)N(C)CC(=O)N(C)[C@H]3C/C=C\CCN(C3=O)[C@@H](Cc3ccc(F)cc3)C(=O)N(C)CC(=O)N[C@@H](CCc3cc(F)c(C(F)(F)F)c(F)c3)C(=O)N2C1 [PP1523]

Same assay, conditions: SPR, Single Cycle Kinetics, GDP-bound KRAS wild-type protein; read-out: KRAS KD

SMILES | Kd
CCO[C@@H]1C[C@H]2C(=O)NC3(CCC3)C(=O)N(C)[C@@H](C3CCCC3)C(=O)N(C)[C@H](C(=O)N3CCCC3)CC(=O)N(C)[C@H]3CCCCC/C=C/c4ccc(cc4)C[C@@H](C(=O)N(C)CC(=O)N[C@@H](CCc4ccc(Cl)c(Cl)c4)C(=O)N2C1)N1CC/C=C\C[C@@H](C1=O)N(C)C(=O)CN(C)C(=O)[C@H]([C@@H](C)CC)NC3=O [PP3049] | 0.2 nM
CCO[C@@H]1C[C@H]2C(=O)NC3(CCC3)C(=O)N(C)[C@@H](C(CC)CC)C(=O)N(C)[C@H](C(=O)N3CCCCC3)CC(=O)N(C)[C@H]3CCCCC/C=C/c4ccc(cc4)C[C@@H](C(=O)N(C)CC(=O)N[C@@H](CCc4ccc(Cl)c(Cl)c4)C(=O)N2C1)N1CC/C=C\C[C@@H](C1=O)N(C)C(=O)CN(C)C(=O)[C@H]([C@@H](C)CC)NC3=O [PP3051] | 0.75 nM
